Results: patent US20260166029A1, “METHODS AND SYSTEMS FOR TREATING DISEASE USING AN ATR/CHK1 SIGNALING PATHWAY INHIBITOR” (Acrivon Therapeutics, Inc., priority 2022, published 2026)

Tests used:
HCT116 = HCT116 cell line; external data from prior publications; cited from earlier work
HeLa = test: Cell Titer Glo 2.0 relative cell viability, 72 h (Example 10); type: cell-based; details: Homo sapiens, HeLa cell line, read-out: Abs IC50
Procedure: (§1) The present Example provides experimental evidence that cell lines predicted to be sensitive to a Chk1 inhibitor (e.g., prexasertib, are also sensitive to Wee1 inhibitors (e.g., adavosertib (AZD1775, MK1775) and azenosertib (Zn-C3)). Cell lines were treated with increasing doses of either prexasertib, adavosertib, or azenosertib, and relative cell viability against a DMSO control was assessed 72 h after drug treatment using Cell Titer Glo 2.0 (Promega) and a SpectraMax microplate reader. The results are shown in FIGS. 19A-19C. Error bars represent standard deviations from quadruplicate samples.

PC3 [1] = test: as above; type: cell-based; details: Homo sapiens, PC-3, PC3 cell line, read-out: Abs IC50
Procedure: as §1

OVCAR3 [2] = test: as above; type: cell-based; details: Homo sapiens, OVCAR-3, OVCAR3 cell line, read-out: Abs IC50
Procedure: as §1

BxPC3 = test: as above; type: cell-based; details: Homo sapiens, BXPC-3, BxPC3 cell line, read-out: Abs IC50
Procedure: as §1

A375 = test: as above; type: cell-based; details: Homo sapiens, A-375, A375 cell line, read-out: Abs IC50
Procedure: as §1

T47D [3] = test: as above; type: cell-based; details: Homo sapiens, T47D cell line, read-out: Abs IC50
Procedure: as §1

A2780 [4] = test: as above; type: cell-based; details: Homo sapiens, A2780 cell line, read-out: Abs IC50
Procedure: as §1

[5] = tested on: head and neck, anal, and ovarian cancer; details: cited from earlier work
CAOV3 = test: Cell viability, sensitivity to prexasertib (Example 1); type: cell-based, human; details: CAOV3 cell line
Procedure: (§2) Predicted response to prexasertib was compared to experimentally measured sensitivity to prexasertib. […] EC50 values of less than or equal to 1 μM were considered to be actual responders, while values of greater than 1 μM were considered to be actual non-responders.

PC3 [6] = test: as above; type: cell-based, human; details: PC3 cell line
Procedure: as §2

OVCAR3 [7] = test: as above; type: cell-based, human; details: OVCAR3 cell line
Procedure: as §2

A549 = test: as above; type: cell-based, human; details: A549 cell line
Procedure: as §2

U2020 = test: as above; type: cell-based, human; details: U2020 cell line
Procedure: as §2

U1752 = test: as above; type: cell-based, human; details: U1752 cell line
Procedure: as §2

Kuramochi = test: as above; type: cell-based, human; details: Kuramochi cell line
Procedure: as §2

BT549 = test: as above; type: cell-based, human; details: BT549 cell line
Procedure: as §2

MCF7 = test: as above; type: cell-based, human; details: MCF7 cell line
Procedure: as §2

DU145 = test: as above; type: cell-based, human; details: DU145 cell line
Procedure: as §2

T47D [8] = test: as above; type: cell-based, human; details: T47D cell line
Procedure: as §2

A2780 [9] = test: as above; type: cell-based, human; details: A2780 cell line
Procedure: as §2

[10] = based on measured sensitivity (EC50)
[11] = Homo sapiens, reduction in cell viability by 50%

COc1cccc(OCCCN)c1-c1cc(Nc2cnc(C#N)cn2)n[nH]1 [prexasertib, 5-(5-(2-(3-aminopropoxy)-6-methoxyphenyl)-1H-pyrazol-3-ylamino)pyrazine-2-carbonitrile]
EC50 (HCT116): 100 nM | IC50 (HeLa): 15 nM | IC50 (PC3 [1]): > 10000 nM | IC50 (OVCAR3 [2]): 0.9 nM | IC50 (BxPC3): 1.4 nM | IC50 (A375): 1.8 nM | IC50 (T47D [3]): > 10000 nM | IC50 (A2780 [4]): > 10000 nM | Response rates in clinical trials ([5]; across cancers, including head and neck, anal, and ovarian cancer, single agent): 5-20% | Side effects ([5]; patients, reversible, common, hematological, mechanism-based myelosuppression): neutropenia, thrombocytopenia, and anemia | Actual response status (CAOV3; [10]): R (EC50 values of less than or equal to 1 μM were considered to be actual responders) | EC50 (CAOV3; Homo sapiens, Caov-3, reduction in cell viability by 50%): 17 nM | EC50 (PC3 [6]; Homo sapiens, PC-3, reduction in cell viability by 50%): > 10000 nM | Actual response status (PC3 [6]; [10]): NR (values of greater than 1 μM were considered to be actual non-responders) | EC50 (OVCAR3 [7]; Homo sapiens, OVCAR-3, reduction in cell viability by 50%): 19 nM | Actual response status (OVCAR3 [7]; [10]): R (EC50 values of less than or equal to 1 μM were considered to be actual responders) | Actual response status (A549; [10]): NR (values of greater than 1 μM were considered to be actual non-responders) | EC50 (A549; [11]): > 10000 nM | EC50 (U2020; [11]): 7 nM | Actual response status (U2020; [10]): R (EC50 values of less than or equal to 1 μM were considered to be actual responders) | EC50 (U1752; [11]): > 10000 nM | Actual response status (U1752; [10]): NR (values of greater than 1 μM were considered to be actual non-responders) | EC50 (Kuramochi; [11]): 24 nM | Actual response status (Kuramochi; [10]): R (EC50 values of less than or equal to 1 μM were considered to be actual responders) | Actual response status (BT549; [10]): R (EC50 values of less than or equal to 1 μM were considered to be actual responders) | EC50 (BT549; Homo sapiens, BT-549, reduction in cell viability by 50%): 21 nM | EC50 (MCF7; [11]): > 10000 nM | Actual response status (MCF7; [10]): NR (values of greater than 1 μM were considered to be actual non-responders) | Actual response status (DU145; [10]): NR (values of greater than 1 μM were considered to be actual non-responders) | EC50 (DU145; Homo sapiens, DU-145, reduction in cell viability by 50%): > 10000 nM | EC50 (T47D [8]; [11]): > 10000 nM | Actual response status (T47D [8]; [10]): NR (values of greater than 1 μM were considered to be actual non-responders) | Actual response status (A2780 [9]; [10]): NR (values of greater than 1 μM were considered to be actual non-responders) | EC50 (A2780 [9]; [11]): > 10000 nM
